Results published in ChEMBL document CHEMBL1201862, “PubChem BioAssay data set” (2004).
Activity calls are given as the source filed them.

Tests used:
[1] = biological target: Potassium channel subfamily K member 9 (Homo sapiens, UniProt Q9NPC2); experiment: TASK3 (KCNK9) channel inhibitors, thallium flux, SAR follow-up, selectivity assay for TASK1 inhibitor project, cell-based, FluxOR thallium flux, concentration-response (AID 652211); format: functional;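 also: potency is for inhibitors of the channel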
[2] = HepG2 cell cytotoxicity, dose response, cytotoxicity control, plate reader, cherry-pick, antagonist series (AID 743416); format: functional, cell-based
[3] = A549 cell cytotoxicity, dose response, cytotoxicity control, plate reader, cherry-pick, antagonist series (AID 743412); format: functional, cell-based
[4] = biological target: T1, Oxysterols receptor LXR-beta (Homo sapiens, UniProt P55055); format: functional, cell-based;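 also: Cell-based luminescence dose-response assay of agonist activity at LXR, run as a confirmatory counterscreen to a daf-12 agonist screen; HEK293 cells with Gal4-LXR fusion and GAL4-driven luciferase reporter; agonist potency from rising luciferase signal of a Gal4-LXR reporter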
T1 sequence (P55055 whole entry): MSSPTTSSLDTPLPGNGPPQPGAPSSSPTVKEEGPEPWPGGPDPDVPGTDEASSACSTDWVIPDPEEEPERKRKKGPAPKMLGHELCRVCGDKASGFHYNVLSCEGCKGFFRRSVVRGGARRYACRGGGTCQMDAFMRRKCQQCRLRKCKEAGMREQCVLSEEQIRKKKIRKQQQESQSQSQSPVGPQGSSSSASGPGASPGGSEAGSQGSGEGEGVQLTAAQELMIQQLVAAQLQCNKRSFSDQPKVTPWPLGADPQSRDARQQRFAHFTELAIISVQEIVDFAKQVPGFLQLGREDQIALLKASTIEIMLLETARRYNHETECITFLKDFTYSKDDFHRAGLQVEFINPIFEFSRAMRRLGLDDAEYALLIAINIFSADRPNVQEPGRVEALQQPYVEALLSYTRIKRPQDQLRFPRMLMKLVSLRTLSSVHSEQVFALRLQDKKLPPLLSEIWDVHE

[5] = LGR2 antagonists, dose response, cell-based, HEK293, CRE-luciferase reporter, cherry pick, set 2 (AID 743343); format: functional;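 also: transfected cells were stimulated with diluted bursicon conditioned medium after compound addition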
[6] = HEK293 cell cytotoxicity, dose response, cytotoxicity control, plate reader, cherry-picked samples (AID 743446); format: functional, cell-based
[7] = cells
[8] = MC4R antagonists, dose response, counter-screen for LGR2 antagonist project, cell-based, plate reader, cherry pick (AID 743444); format: functional;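 also: transfected HEK 293 cells stimulated with alpha-MSH peptide; potency of inhibitors of the alpha-MSH evoked signal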
[9] = biological target: Paired box protein Pax-8 (Homo sapiens, UniProt Q06710); experiment: inhibitors of PAX8-driven TPO luciferase reporter, dose response, RMG-I cells, cherry-pick (AID 687027); format: functional, cell-based;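 also: luciferase reporter driven by Pax8 target thyroperoxidase promoter measured by SteadyGlo luminescence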
[10] = NIH:OVCAR-3 ovarian cancer cell cytotoxicity, dose response, PAX8 inhibitor project, plate reader, dry powder samples (AID 743044); format: functional, cell-based
[11] = biological target: T2, ATP-dependent translocase ABCB1 (Homo sapiens, UniProt P08183); experiment: ABCB1 efflux inhibitor potency, dose response, Jurkat-DNR cells, JC-1, flow cytometry, set 2 (AID 504569); format: functional; conditions: read-out: EC50_MICROM_;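 also: potency of pump inhibitors that raise cellular JC-1 green fluorescence up to the nicardipine level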
[12] = biological target: T2, ATP-dependent translocase ABCB1; experiment: ABCG2 efflux pump inhibitor potency, dose response, Ig-MXP3 cells, JC-1, flow cytometry, set 2 (AID 504566); format: functional; conditions: read-out: EC50_MICROM_;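 also: flow cytometry median green fluorescence of retained JC-1 dye; potency of efflux pump inhibition measured as rising substrate retention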

Sequence of Potassium channel subfamily K member 9 (Q9NPC2 whole entry): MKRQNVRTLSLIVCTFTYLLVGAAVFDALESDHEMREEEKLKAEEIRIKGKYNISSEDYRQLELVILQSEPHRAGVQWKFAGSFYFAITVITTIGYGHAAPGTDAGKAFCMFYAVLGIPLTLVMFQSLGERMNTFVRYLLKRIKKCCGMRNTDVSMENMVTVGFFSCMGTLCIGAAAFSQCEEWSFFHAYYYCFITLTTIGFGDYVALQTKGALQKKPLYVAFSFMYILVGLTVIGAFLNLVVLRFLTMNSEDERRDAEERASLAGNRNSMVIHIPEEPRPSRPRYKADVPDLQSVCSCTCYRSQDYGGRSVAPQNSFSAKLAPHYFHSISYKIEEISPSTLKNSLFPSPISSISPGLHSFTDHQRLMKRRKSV
T2 sequence (P08183 whole entry): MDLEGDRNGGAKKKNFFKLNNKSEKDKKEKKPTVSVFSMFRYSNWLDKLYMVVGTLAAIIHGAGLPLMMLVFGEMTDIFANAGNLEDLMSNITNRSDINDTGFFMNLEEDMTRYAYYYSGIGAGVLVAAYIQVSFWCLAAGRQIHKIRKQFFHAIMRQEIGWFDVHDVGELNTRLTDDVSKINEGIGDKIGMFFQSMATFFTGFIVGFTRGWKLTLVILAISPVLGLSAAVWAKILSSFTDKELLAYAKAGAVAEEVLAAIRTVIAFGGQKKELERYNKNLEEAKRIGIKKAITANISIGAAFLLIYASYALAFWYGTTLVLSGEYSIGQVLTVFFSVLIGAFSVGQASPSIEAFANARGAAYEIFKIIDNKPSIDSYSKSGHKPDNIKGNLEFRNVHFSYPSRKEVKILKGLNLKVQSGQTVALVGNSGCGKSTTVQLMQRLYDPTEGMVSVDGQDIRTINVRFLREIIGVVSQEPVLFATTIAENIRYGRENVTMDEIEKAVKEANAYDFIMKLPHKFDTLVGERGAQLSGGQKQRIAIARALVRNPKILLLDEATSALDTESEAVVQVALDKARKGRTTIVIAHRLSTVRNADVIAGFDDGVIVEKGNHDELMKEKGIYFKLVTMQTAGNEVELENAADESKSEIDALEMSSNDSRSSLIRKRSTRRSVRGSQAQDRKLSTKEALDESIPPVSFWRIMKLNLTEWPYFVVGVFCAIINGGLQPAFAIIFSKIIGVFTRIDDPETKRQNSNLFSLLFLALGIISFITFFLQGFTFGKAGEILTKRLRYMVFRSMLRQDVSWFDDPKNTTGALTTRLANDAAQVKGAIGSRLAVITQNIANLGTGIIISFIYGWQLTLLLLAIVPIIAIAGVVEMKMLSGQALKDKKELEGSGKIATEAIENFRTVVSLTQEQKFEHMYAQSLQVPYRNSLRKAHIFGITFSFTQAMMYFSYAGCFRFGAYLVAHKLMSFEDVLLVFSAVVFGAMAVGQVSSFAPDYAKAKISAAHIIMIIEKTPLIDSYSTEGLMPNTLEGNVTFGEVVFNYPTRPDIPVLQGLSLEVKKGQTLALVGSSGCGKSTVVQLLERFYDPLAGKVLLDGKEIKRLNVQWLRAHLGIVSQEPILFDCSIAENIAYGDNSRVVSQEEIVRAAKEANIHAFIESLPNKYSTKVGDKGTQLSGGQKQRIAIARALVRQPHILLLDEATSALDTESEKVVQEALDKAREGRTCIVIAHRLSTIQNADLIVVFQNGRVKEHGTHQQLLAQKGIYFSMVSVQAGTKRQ
Sequence of Paired box protein Pax-8 (Q06710 whole entry): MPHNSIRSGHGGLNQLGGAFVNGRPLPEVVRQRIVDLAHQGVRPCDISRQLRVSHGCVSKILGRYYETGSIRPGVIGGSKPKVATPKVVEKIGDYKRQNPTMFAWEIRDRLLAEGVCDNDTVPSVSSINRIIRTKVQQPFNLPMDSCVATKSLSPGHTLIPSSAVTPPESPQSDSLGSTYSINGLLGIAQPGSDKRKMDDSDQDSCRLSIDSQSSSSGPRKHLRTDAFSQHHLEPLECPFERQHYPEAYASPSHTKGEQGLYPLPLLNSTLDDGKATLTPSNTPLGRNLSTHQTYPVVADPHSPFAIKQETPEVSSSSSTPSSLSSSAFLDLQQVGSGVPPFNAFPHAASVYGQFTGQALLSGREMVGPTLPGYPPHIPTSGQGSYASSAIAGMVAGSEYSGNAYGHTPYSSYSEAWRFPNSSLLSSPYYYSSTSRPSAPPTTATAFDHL

With `COc1ccccc1C(=O)Nc1cccc(NC(=O)c2ccccc2OC(F)(F)F)c1` the IC50 [1] was 1.17 µM (active).

For `COc1ccccc1C(=O)Nc1cccc(NC(=O)c2ccccc2C)c1`, the IC50 [1] was 3.49 µM (active).

For `Cc1cc2ncc(-c3cccs3)nc2cc1C`, the AC50 [2] was > 52 µM (inactive), the AC50 [3] was 25.7 µM (active) and the EC50 [4] was > 67.6 µM (inactive). For the same molecule, the AC50 [5] was 4.64 µM (active), the AC50 [6] was 49.4 µM (active) and the EC50 [7] was > 67.6 µM (inactive). For the same molecule, the AC50 [8] was 4.22 µM (active).

In the case of `C[C@H](CO)N1C[C@H](C)[C@@H](CN(C)Cc2ccc(C(F)(F)F)cc2)OCCCC[C@H](C)Oc2ccc(NC(=O)Cc3ccccc3)cc2C1=O`, the AC50 [9] was 9.66 µM (active) and the AC50 [10] was 30.6 µM (active).

For `O=C(Nc1cccc(NC(=O)c2ccccc2C(F)(F)F)c1)c1ccccc1`, the IC50 [1] was 7.21 µM (active).

With `O=C(c1ccsc1)N1CCN(c2cc(-c3ccccc3)nc3cc(-c4cccc(Cl)c4)nn23)CC1` the EC50 [11] was 3.4 µM (active) and the EC50 [12] was 1.63 µM (active).
